Where two headings read alike, the source gives them in different places.
Legend:
Assay type in all cases: cell-based
HL-60(TB) = assay: NCI 60 antitumor screening (single dose / five doses); settings: Homo sapiens
MOLT-4 = assay: as above; settings: Homo sapiens
A549/ATCC = assay: NCI 60 antitumor screening (single dose); settings: Homo sapiens; A549/ATCC (non-small cell lung cancer), single dose 10 μM; read-out: Growth inhibition percentage (GI %)
In short: (§1)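 Read-out is percent growth (G%) of treated cancer cells relative to untreated, converted to percent inhibition as 100 − G%. Each compound was applied once at 10 μM across 60 human tumour lines under the NCI protocol.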

CAKI-1 = assay: NCI 60 antitumor screening (single dose); settings: Homo sapiens
In short: as §1

HOP-62 = assay: NCI 60 antitumor screening (single dose); settings: Homo sapiens; HOP-62 (non-small cell lung cancer), single dose 10 μM; read-out: Growth inhibition percentage (GI %)
In short: (§2)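 Percent growth inhibition, calculated as 100 minus percent growth (G%) of treated cells, following a single 10 μM exposure in the NCI 60 human cancer cell screen; triplicate runs.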

HS 578T = assay: NCI 60 antitumor screening (single dose); settings: Homo sapiens, read-out: Growth inhibition percentage (GI %)
In short: as §1

KM 12 = assay: NCI 60 antitumor screening (single dose); settings: Homo sapiens, KM12; KM 12 (colon cancer), single dose 10 μM; read-out: Growth inhibition percentage (GI %)
In short: as §1

M14 = assay: NCI 60 antitumor screening (single dose); settings: Homo sapiens
In short: as §1

MCF7 = assay: NCI 60 antitumor screening (single dose); settings: Homo sapiens
In short: as §1

NCI-H226 = assay: NCI 60 antitumor screening (single dose); settings: Homo sapiens; NCI-H226 (non-small cell lung cancer), single dose 10 μM; read-out: Growth inhibition percentage (GI %)
In short: as §1

NCI-H23 = assay: NCI 60 antitumor screening (single dose); settings: Homo sapiens; NCI-H23 (non-small cell lung cancer), single dose 10 μM; read-out: Growth inhibition percentage (GI %)
In short: as §2

NCI-H322M = assay: NCI 60 antitumor screening (single dose); settings: Homo sapiens; NCI-H322M (non-small cell lung cancer), single dose 10 μM; read-out: Growth inhibition percentage (GI %)
In short: as §1

NCI-H460 = assay: NCI 60 antitumor screening (single dose); settings: Homo sapiens; NCI-H460 (non-small cell lung cancer), single dose 10 μM; read-out: Growth inhibition percentage (GI %)
In short: as §2

NCI-H522 = assay: NCI 60 antitumor screening (single dose); settings: Homo sapiens; NCI-H522 (non-small cell lung cancer), single dose 10 μM; read-out: Growth inhibition percentage (GI %)
In short: as §2

OVCAR-3 = assay: NCI 60 antitumor screening (single dose); settings: Homo sapiens
In short: as §1

OVCAR-4 = assay: NCI 60 antitumor screening (single dose); settings: Homo sapiens
In short: as §1

OVCAR-5 = assay: NCI 60 antitumor screening (single dose); settings: Homo sapiens
In short: as §2

OVCAR-8 = assay: NCI 60 antitumor screening (single dose); settings: Homo sapiens
In short: as §1

PC-3 = assay: NCI 60 antitumor screening (single dose); settings: Homo sapiens
In short: as §1

SF-268 = assay: NCI 60 antitumor screening (single dose); settings: Homo sapiens; SF-268 (CNS cancer), single dose 10 μM; read-out: Growth inhibition percentage (GI %)
In short: as §2

SK-OV-3 = assay: NCI 60 antitumor screening (single dose); settings: Homo sapiens
In short: as §2

U251 = assay: NCI 60 antitumor screening (single dose); settings: Homo sapiens, U-251; U251 (CNS cancer), single dose 10 μM; read-out: Growth inhibition percentage (GI %)
In short: as §2

SK-MEL-28 = assay: NCI 60 antitumor screening (single dose / five doses); settings: Homo sapiens
SK-MEL-5 = assay: as above; settings: Homo sapiens
SN 12C = assay: as above; settings: Homo sapiens, SN12C, read-out: Growth inhibition percentage (GI %)
DU-145 = assay: as above; settings: Homo sapiens
T-47D = assay: as above; settings: Homo sapiens, T47D, read-out: Growth inhibition percentage (GI %)
[1] = HL-60, read-out: Growth inhibition percentage (GI %)
[2] = MOLT-4, read-out: Growth inhibition percentage (GI %)
[3] = SK-MEL-28, read-out: Growth inhibition percentage (GI %)
[4] = SK-MEL-5, read-out: Growth inhibition percentage (GI %)
[5] = DU-145, read-out: Growth inhibition percentage (GI %)
[6] = CAKI-1 (renal cancer), single dose 10 μM, read-out: Growth inhibition percentage (GI %)
[7] = HS 578T (breast cancer), single dose 10 μM
[8] = M14 (melanoma), single dose 10 μM, read-out: Growth inhibition percentage (GI %)
[9] = MCF7 (breast cancer), single dose 10 μM, read-out: Growth inhibition percentage (GI %)
[10] = OVCAR-3 (ovarian cancer), single dose 10 μM, read-out: Growth inhibition percentage (GI %)
[11] = OVCAR-4 (ovarian cancer), single dose 10 μM, read-out: Growth inhibition percentage (GI %)
[12] = OVCAR-5 (ovarian cancer), single dose 10 μM, read-out: Growth inhibition percentage (GI %)
[13] = OVCAR-8 (ovarian cancer), single dose 10 μM, read-out: Growth inhibition percentage (GI %)
[14] = PC-3 (prostate cancer), single dose 10 μM, read-out: Growth inhibition percentage (GI %)
[15] = SK-OV-3 (ovarian cancer), single dose 10 μM, read-out: Growth inhibition percentage (GI %)

| Compound | inhibition at 10 µM (HL-60(TB); [1]) | inhibition at 10 µM (MOLT-4; [2]) | inhibition at 10 µM (A549/ATCC) | inhibition at 10 µM (HOP-62) | inhibition at 10 µM (KM 12) | inhibition at 10 µM (NCI-H226) | inhibition at 10 µM (NCI-H23) | inhibition at 10 µM (NCI-H322M) | inhibition at 10 µM (NCI-H460) | inhibition at 10 µM (NCI-H522) | inhibition at 10 µM (SF-268) | inhibition at 10 µM (U251) | inhibition at 10 µM (SK-MEL-28; [3]) | inhibition at 10 µM (SK-MEL-5; [4]) | inhibition at 10 µM (SN 12C) | inhibition at 10 µM (DU-145; [5]) | inhibition at 10 µM (T-47D) | inhibition at 10 µM (CAKI-1; [6]) | inhibition at 10 µM (HS 578T; [7]) | inhibition at 10 µM (M14; [8]) | further results |
| --- | --- | --- | --- | --- | --- | --- | --- | --- | --- | --- | --- | --- | --- | --- | --- | --- | --- | --- | --- | --- | --- |
| O=[N+]([O-])c1cc(/C=N/Nc2nc(N/N=C/c3ccc(Cl)c([N+](=O)[O-])c3)nc(N3CCOCC3)n2)ccc1Cl [compound 6i, 2,4-Bis[(E)-2-[(4-Chloro-3-nitrophenyl)methylidene]hydrazin-1-yl]-6-(morpholin-4-yl)-1,3,5-triazine] | 13.7% | 13.3% | -8.71% | -5.02% | 6.79% | -3.53% | 3.66% | 2.28% | -1.58% | 0.32% | 0.39% | -5.95% | -4.35% | 3.31% | 9.02% | -11.3% | 0.85% |  |  |  | inhibition at 10 µM (CAKI-1; CAKI-1, read-out: Growth inhibition percentage (GI %)): -3.02%; inhibition at 10 µM (HS 578T; Hs-578T): -5.27%; inhibition at 10 µM (M14; M14, read-out: Growth inhibition percentage (GI %)): -11.5%; inhibition at 10 µM (MCF7; MCF7, read-out: Growth inhibition percentage (GI %)): 56.7%; inhibition at 10 µM (OVCAR-3; OVCAR-3, read-out: Growth inhibition percentage (GI %)): -10%; inhibition at 10 µM (OVCAR-4; OVCAR-4, read-out: Growth inhibition percentage (GI %)): -12.5%; inhibition at 10 µM (OVCAR-5; OVCAR-5, read-out: Growth inhibition percentage (GI %)): -9.28%; inhibition at 10 µM (OVCAR-8; OVCAR-8, read-out: Growth inhibition percentage (GI %)): 3.42%; inhibition at 10 µM (PC-3; PC-3, read-out: Growth inhibition percentage (GI %)): -0.63%; inhibition at 10 µM (SK-OV-3; SK-OV-3, read-out: Growth inhibition percentage (GI %)): -22.5% |
| Clc1cccc(/C=N/Nc2nc(N/N=C/c3cccc(Cl)c3Cl)nc(N3CCOCC3)n2)c1Cl [compound 6h, 2,4-Bis[(E)-2-[(2,3-Dichlorophenyl)methylidene]hydrazin-1-yl]-6-(morpholin-4-yl)-1,3,5-triazine] |  |  | 3.4% | -3.7% | 8.19% | 14.6% | 25.5% | 11.9% | -0.07% | 21.4% | 13% | 21% |  |  |  |  |  | -1.35% | -8.95% | -4.08% | inhibition at 10 µM (HL-60(TB); HL-60(TB) (leukaemia), single dose 10 μM, read-out: Growth inhibition percentage (GI %)): -3.95%; inhibition at 10 µM (MOLT-4; MOLT-4 (leukaemia), single dose 10 μM, read-out: Growth inhibition percentage (GI %)): 16.1%; inhibition at 10 µM (MCF7; [9]): 25.1%; inhibition at 10 µM (OVCAR-3; [10]): -2.72%; inhibition at 10 µM (OVCAR-4; [11]): 3.18%; inhibition at 10 µM (OVCAR-5; [12]): -10.2%; inhibition at 10 µM (OVCAR-8; [13]): 44.6%; inhibition at 10 µM (PC-3; [14]): 14.5%; inhibition at 10 µM (SK-OV-3; [15]): -15.1%; inhibition at 10 µM (SK-MEL-28; SK-MEL-28 (melanoma), single dose 10 μM, read-out: Growth inhibition percentage (GI %)): 2.23%; inhibition at 10 µM (SK-MEL-5; SK-MEL-5 (melanoma), single dose 10 μM, read-out: Growth inhibition percentage (GI %)): 15.5%; inhibition at 10 µM (SN 12C; SN 12C (renal cancer), single dose 10 μM): 20.2%; inhibition at 10 µM (DU-145; DU-145 (prostate cancer), single dose 10 μM, read-out: Growth inhibition percentage (GI %)): -2.63%; inhibition at 10 µM (T-47D; T-47D (breast cancer), single dose 10 μM): 44.7% |
| C/C(=N\Nc1nc(N/N=C(\C)c2ccc([N+](=O)[O-])cc2)nc(N2CCOCC2)n1)c1ccc([N+](=O)[O-])cc1 [compound 8a, 2-(Morpholin-4-yl)-4,6-bis[(E)-2-[1–(4-nitrophenyl)ethylidene]hydrazin-1-yl]-1,3,5-triazine] | 7.4% | 21.1% | 26.1% | 13.8% | 17.9% | 58.1% | 42.1% | 13.3% | 21.9% | 38.3% | 3.96% | 7.36% | 16.2% | 32.9% | -27.4% | 19% | 45.1% | 30.8% | 21.3% | 25.5% | inhibition at 10 µM (MCF7; [9]): 25.9%; inhibition at 10 µM (OVCAR-3; [10]): 11.6%; inhibition at 10 µM (OVCAR-4; [11]): 22.4%; inhibition at 10 µM (OVCAR-5; [12]): 4.46%; inhibition at 10 µM (OVCAR-8; [13]): 36.4%; inhibition at 10 µM (PC-3; [14]): 23.4%; inhibition at 10 µM (SK-OV-3; [15]): -13% |

— publication PMC9848300, “Discovery of novel enasidenib analogues targeting inhibition of mutant isocitrate dehydrogenase 2 as antileukaemic agents” (Journal of Enzyme Inhibition and Medicinal Chemistry, 2023)
